For one test, the target named is T1, B-RAFV600E (Homo sapiens, UniProt P15056, V600E).
T1 construct: purchased Millipore, USA 14-557
The test can be described thus: B-RAFV600E radiometric assay. The format is biochemical. The conditions noted are these: read-out: Kinase assay B-Raf. As for the experimental part:
Compound inhibition for B-RAFV600E was determined through radiometric assay using a BRAF enzyme (Catalog No. 14-557, Millipore, USA) and MEK-K97M protein as a substrate (Catalog No. 0785-0000-1, ProqQinase GmbH, Germany). The B-RAF kinase catalyzes the phosphorylation of MEK protein in the presence of gamma ATP (PLC-101, Jonaki, CCMB, Hyderabad), cold ATP and Mg^2+.
The phosphorylated protein product is detected by the scintillation counter Topcount® machine (Perkin Elmer). This assay has been adapted from the method previously reported by Yeh et al. (2007, Clinical Cancer Research; 13, 1576-1583). The assay measures the B-RAF mediated transfer of 32P from the gamma position of radiolabeled ATP onto MEK1-KD. The labeled phosphorylated protein was measured in MicroBeta® Trilux Counter (Perkin Elmer). The assay was validated with reference compounds RAF1 Kinase Inhibitor I and ZM 336372 inhibitor which are reported to be inhibitors of B-RAF enzyme (Lackey, 2000, Medicinal Chemistry Letters; 10(3):223-226; Kupcho, “Fluorescent High throughput kinase cascade assays for inhibitor characterization, RAF-MEK-ERK pathway, www.invitrogen.com, and Hall-Jackson, 1999, Chemical Biology; 6(8):559-568). B-RAF enzyme mixture (13 μL) was added to compound wells containing 2 μL of the NCE in 1% DMSO and incubated for 45 min at rt on a shaking incubator at 300 rpm. MEK-K97M (0.5 μg) and cold ATP to a final concentration of 5 μM, and hot ATP 0.1 μCi in a volume of 10 μL was added to each well and incubated for 2 h at rt on a shaking incubator at 300 rpm. The reaction was stopped by addition of […] (13 μL) containing ATP (1 mM: 495 μL 1N HCl and 5 μL 100 mM ATP). Aliquot (30 μL) was then transferred to the center of a 2 cm×2 cm P81 paper. P81 paper was washed 8×5 min each with ortho-phosphoric acid (0.5%). P81 papers are washed twice with acetone for […] Assay squares were allowed to dry for […] at 37° C. P81 paper are transferred to Optiplate™ (Perkin Elmer) and counted in a Topcount® counter (Perkin Elmer). Data was plotted against the compound concentration to generate dose-response curves and IC50 values were determined using a sigmoidal dose response curve fit GraphPad Prism® v5 software.

In the next test the target is T2, mTOR kinase (Homo sapiens, UniProt P42345).
T2 construct: purchased Millipore, US
T2 sequence (P42345 1362-2549 limits assumed): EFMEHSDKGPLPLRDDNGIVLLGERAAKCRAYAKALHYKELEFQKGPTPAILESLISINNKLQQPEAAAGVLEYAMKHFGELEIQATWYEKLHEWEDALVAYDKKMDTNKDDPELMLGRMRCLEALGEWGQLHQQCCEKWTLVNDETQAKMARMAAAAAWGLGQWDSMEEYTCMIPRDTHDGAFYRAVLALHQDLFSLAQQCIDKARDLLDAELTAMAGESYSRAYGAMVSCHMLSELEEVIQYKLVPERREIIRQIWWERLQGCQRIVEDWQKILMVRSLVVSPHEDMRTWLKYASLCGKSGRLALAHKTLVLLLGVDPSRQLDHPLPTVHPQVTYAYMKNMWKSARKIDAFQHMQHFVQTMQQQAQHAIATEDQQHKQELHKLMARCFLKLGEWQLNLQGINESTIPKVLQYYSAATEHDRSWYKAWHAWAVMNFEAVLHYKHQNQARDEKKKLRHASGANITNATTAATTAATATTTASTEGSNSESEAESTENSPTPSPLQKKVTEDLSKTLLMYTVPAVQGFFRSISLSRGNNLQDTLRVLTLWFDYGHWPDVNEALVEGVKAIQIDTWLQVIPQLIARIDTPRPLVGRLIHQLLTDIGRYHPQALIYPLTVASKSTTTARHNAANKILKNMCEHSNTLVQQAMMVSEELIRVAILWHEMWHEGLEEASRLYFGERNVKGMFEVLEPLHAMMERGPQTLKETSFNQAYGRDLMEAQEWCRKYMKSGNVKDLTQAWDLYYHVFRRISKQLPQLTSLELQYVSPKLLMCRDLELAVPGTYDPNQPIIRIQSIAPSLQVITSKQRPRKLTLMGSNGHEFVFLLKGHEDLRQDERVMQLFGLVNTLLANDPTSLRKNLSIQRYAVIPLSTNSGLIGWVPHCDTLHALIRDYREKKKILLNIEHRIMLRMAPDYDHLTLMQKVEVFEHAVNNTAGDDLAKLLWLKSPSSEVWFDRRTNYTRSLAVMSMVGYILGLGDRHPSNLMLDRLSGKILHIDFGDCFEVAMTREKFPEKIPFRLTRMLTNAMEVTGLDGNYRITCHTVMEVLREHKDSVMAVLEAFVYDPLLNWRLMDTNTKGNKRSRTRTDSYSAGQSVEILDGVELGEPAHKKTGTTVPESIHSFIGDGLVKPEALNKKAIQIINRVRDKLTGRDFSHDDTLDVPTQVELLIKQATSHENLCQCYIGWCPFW
The test can be described thus: mTOR kinase TR-FRET assay. The format is biochemical. As for the experimental part: Compound inhibition for mTOR kinase was determined by homogeneous TR-FRET assay using ULight-p70 S6K (Thr 389) peptide as substrate. mTOR enzyme (Millipore, US; […]) was used in the assay. The reaction buffer was HEPES (50 mM, pH 7.5), EGTA (1 mM), and MnCl2 (3 mM). Test compound was pre-incubated with mTOR for 30 min followed by 50 nM ULight-p70 S6K (Thr 389) peptide along with ATP (20 μM).
After incubating the reaction mixture for 30 min, Eu-labeled anti-phospho-substrate antibody (1 nM, Perkin Elmer, USA) was added. Fluorescence emission at […] was measured upon excitation at 340 nm. The compound dilution was carried out in 100% DMSO followed by a buffer dilution. The kinase reaction was incubated for 1 h at rt followed by the addition of substrate-ATP mix and incubated at rt for 1 h. The reaction was terminated by the addition of EDTA followed by the addition of detection mix. IC50 values were determined using a sigmoidal dose response curve fit, GraphPad Prism® v5 software.

A further test has as its system pERK in A375 cells. The test can be described thus: In Cell Western (ICW) assay, pERK in A375 cells. The test is classed as cell-based. The following applies: Homo sapiens, A-375, 3 h treatment. As for the experimental part:
Cell lines A375, A2058 and RKO obtained from the ATCC as provided above, were grown, and after attaining ˜80% confluency were trypsinized, centrifuged and resuspended in fresh media. The cells were seeded at the specified density (20,000 to 50,000) in a 96-well format black-well clear bottom plate (Corning) and incubated overnight at 37° C. in a 5% CO2 incubator. The next day, compound dilutions of test compounds were prepared in 100% DMSO followed by dilutions in respective media. Treatment of test compounds was performed for 3 h at 37° C. in 5% CO2 incubator. Following 3 h drug treatment, the conditional media was discarded and the cells were washed once with cPBS (PBS containing 0.1% magnesium chloride hexahydrate and 0.1% anhydrous calcium chloride) and fixed with 4% paraformaldehyde in cPBS for 1 h at rt. After fixing, the cells were given three washes using cPBST (cPBS containing 0.1% Triton™ X-100 reagent) and then blocked using blocking solution (5% skimmed milk powder or 5% BSA prepared in cPBST) for 2 h at rt with shaking at 300 rpm. The cells were again washed thrice with cPBST and incubated with primary antibody phospho-p44/42 MAPK(Erk1/2)(Thr202/204) antibody (Cell Signaling, Catalog # 9101L), phospho S6 ribosomal protein (Cell Signaling, Catalog #4858L), phospho AKT (Thr 308) (Cell Signaling, Catalog #9275) or phospho AKT (Ser 473) (Cell Signaling, Catalog #4060L) in specified dilutions (1:500-1:2500), prepared in respective blocking solutions, in a racker overnight at 4° C. The next day, the cells were washed with 1× Delfia® wash buffer (4×1 wash) and incubated with secondary antibody (Delfia®-Eu-N1 labeled anti-rabbit antibody; PerkinElmer, Catalog #AD0105; dilutions: 1:2000 to 1:6000 in Delfia® assay buffer (PerkinElmer, Catalog #1244-111)) for 2 h at rt in the dark at 300 rpm. The cells were then given four washes with 1× Delfia® wash buffer and incubated with Wallac Delfia® Enhancement solution (100 μL; PerkinElmer, Catalog #1244-105) for 20 min at rt in the dark at 300 rpm. The fluorescence emission was then read at 615 nm with an excitation wavelength of 340 nm using a Victor V5 Fluorometer (Perkin Elmer, US). The cells were then washed once with 1×cPBS and incubated with 100 μL of 0.5 mg/mL of Hoechst 33258 dye prepared in cPBS and read at 460 nm with 355 nm excitation, thereby evaluating the correction factor.
The % inhibition for the test compounds of formula (I) (new chemical entities (NCEs)) was calculated keeping DMSO control as 0% and the IC50 values were determined using sigmoidal dose response curve fit in GraphPad Prism® v5 software.

The test system of another test is A375 cells. Nature of the test: XTT assay for cell viability, A375 cells. The conditions noted are these: Homo sapiens, A-375, 72 h. The format is cell-based. As for the experimental part:
Cell lines (A375 ATCC No. CRL-1619, A2058 ATCC No. CRL-11147 and RKO ATCC No. CRL-2577, American Type Culture Collection (ATCC), Manassas Va.) once attaining ˜80% confluency were trypsinized, centrifuged and resuspended in fresh media. Cells (1000-2000/per well) were seeded in 96-well plate and incubated over-night at 37° C. in a 5% CO2 incubator. Compound dilutions were prepared in 100% DMSO followed by dilutions in the respective media. The cells were treated with NCEs for 72 h at 37° C. in 5% CO2 incubator. After 72 h, freshly prepared XTT (1 mg/ml)/PMS (25 μM) solution was added, incubated for 2 to 3 h at 37° C. and the absorbance was measured at 450 nm using an ELISA plate reader. Keeping DMSO control as 100%, the effect of the compound to inhibit the cell proliferation was calculated and the GI50 values were determined using sigmoidal dose response curve fit in GraphPad Prism® v5 software.
On the technique in general: Tetrazolium dyes change colour on reduction, which living cells bring about.

Each structure is given as a SMILES string.

T1 sequence (P15056 416-766 V600E limits assumed): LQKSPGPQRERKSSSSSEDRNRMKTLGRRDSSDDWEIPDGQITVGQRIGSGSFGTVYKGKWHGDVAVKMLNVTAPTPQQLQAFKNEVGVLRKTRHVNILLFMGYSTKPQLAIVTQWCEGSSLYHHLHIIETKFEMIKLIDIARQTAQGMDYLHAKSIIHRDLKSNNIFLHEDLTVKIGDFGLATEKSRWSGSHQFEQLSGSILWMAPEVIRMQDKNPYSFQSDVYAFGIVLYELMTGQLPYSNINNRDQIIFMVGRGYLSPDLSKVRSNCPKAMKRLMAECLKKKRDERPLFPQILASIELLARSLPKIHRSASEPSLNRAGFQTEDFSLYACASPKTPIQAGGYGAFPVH

Turning to `CCCS(=O)(=O)Nc1ccc(F)c(-c2cc(OC)c3nc(-c4cnc(N)nc4)nc(N4CCOCC4)c3c2)c1F` [Example 6, N-(3-(2-(2-aminopyrimidin-5-yl)-8-methoxy-4-morpholinoquinazolin-6-yl)-2,4-difluorophenyl)propane-1-sulfonamide], the IC50 on B-RAFV600E lay in the range of 0.001 to 0.1 µM; against mTOR kinase it was 0.001 to 0.1 µM; in the test on pERK in A375 cells, 0.1 to 1 µM; with A375 cells it was 0.1 to 1 µM.
Regarding `CCCS(=O)(=O)Nc1cccc(-c2cc(OC)c3nc(-n4c(C(F)F)nc5ccccc54)nc(N4CCOCC4)c3c2)c1F` [Example 9, N-(3-(2-(2-(difluoromethyl)-1H-benzo[d]imidazol-1-yl)-8-methoxy-4-morpholinoquinazolin-6-yl)-2-fluorophenyl)propane-1-sulfonamide], the IC50 on B-RAFV600E lay within 0.001 to 0.1 µM; against mTOR kinase it was 0.1 to 1 µM; in the test on pERK in A375 cells, 0.1 to 1 µM; in the test on A375 cells, 0.1 to 1 µM.
As for `COc1cc(-c2cccc(NS(=O)(=O)c3c(F)cccc3F)c2F)cc2c(N3CCOCC3)nc(-c3cnc(N)nc3)nc12` [Example 13, N-(3-(2-(2-aminopyrimidin-5-yl)-8-methoxy-4-morpholinoquinazolin-6-yl)-2-fluorophenyl)-2,6-difluorobenzenesulfonamide], the IC50 at B-RAFV600E lay within 0.001 to 0.1 µM; on mTOR kinase, 0.1 to 1 µM; with pERK in A375 cells, 0.1 to 1 µM; in the test with A375 cells, 0.1 to 1 µM.
Turning to `CCCS(=O)(=O)Nc1cccc(-c2cc(OC)c3nc(-c4ccc(NC(=O)NC)cc4)nc(N4CCOCC4)c3c2)c1F` [Example 14, N-(2-fluoro-3-(8-methoxy-2-(4-(3-methylureido)phenyl)-4-morpholinoquinazolin-6-yl)phenyl)propane-1-sulfonamide], the IC50 was in the range of 0.1 to 1 µM at B-RAFV600E, 0.001 to 0.1 µM against mTOR kinase, 0.1 to 1 µM in the test with pERK in A375 cells and 0.1 to 1 µM in the test on A375 cells.
Take `CCCS(=O)(=O)Nc1cccc(-c2cc(OC)c3nc(-c4cnc(N)nc4)nc(N4CCOCC4)c3c2)c1F` [Example 15, N-(3-(2-(2-aminopyrimidin-5-yl)-8-methoxy-4-morpholinoquinazolin-6-yl)-2-fluorophenyl)propane-1-sulfonamide]: the IC50 at B-RAFV600E, against mTOR kinase, in the test with pERK in A375 cells and in the test on A375 cells was 0.1 to 1 µM each time.
`CCCS(=O)(=O)Nc1cccc(-c2cc(OC)c3nc(-c4ccc(N)nc4)nc(N4CCOCC4)c3c2)c1F` [Example 17, N-(3-(2-(6-aminopyridin-3-yl)-8-methoxy-4-morpholinoquinazolin-6-yl)-2-fluorophenyl)propane-1-sulfonamide]: the IC50 fell in the range of 0.001 to 0.1 µM on B-RAFV600E, 0.001 to 0.1 µM at mTOR kinase, 0.1 to 1 µM in the test with pERK in A375 cells and 0.1 to 1 µM with A375 cells.
`CCCS(=O)(=O)Nc1cccc(-c2cc(OC)c3nc(-c4ccc(N)nc4F)nc(N4CCOCC4)c3c2)c1F` [Example 18, N-(3-(2-(6-amino-2-fluoropyridin-3-yl)-8-methoxy-4-morpholinoquinazolin-6-yl)-2-fluorophenyl)propane-1-sulfonamide]: the IC50 at B-RAFV600E, against mTOR kinase, with pERK in A375 cells and in the test with A375 cells was 0.1 to 1 µM throughout.
In the case of `COc1cc(-c2cccc(NS(=O)(=O)c3c(F)cccc3F)c2F)cc2c(N3CCOCC3)nc(-c3ccc(N)nc3)nc12` [Example 19, N-(3-(2-(6-aminopyridin-3-yl)-8-methoxy-4-morpholinoquinazoIin-6-yl)-2-fluorophenyl)-2,6-difluorobenzenesulfonamide], the IC50 at B-RAFV600E was 0.001 to 0.1 µM; at mTOR kinase, 0.1 to 1 µM; in the test with pERK in A375 cells, 0.1 to 1 µM; in the test with A375 cells, 0.1 to 1 µM.
On to `COc1cc(-c2cccc(NS(=O)(=O)CC(C)C)c2F)cc2c(N3CCOCC3)nc(-c3cnc(N)nc3)nc12` [Example 20, N-(3-(2-(2-aminopyrimidin-5-yl)-8-methoxy-4-morpholinoquinazolin-6-yl)-2-fluorophenyl)-2-methylpropane-1-sulfonamide], for which the IC50 at B-RAFV600E was 0.001 to 0.1 µM; at mTOR kinase it was 0.1 to 1 µM; in the test on pERK in A375 cells it was 0.1 to 1 µM; with A375 cells, 0.1 to 1 µM.
As to `CCS(=O)(=O)Nc1cccc(-c2cc(OC)c3nc(-c4cnc(N)nc4)nc(N4CCOCC4)c3c2)c1F` [Example 21, N-(3-(2-(2-aminopyrimidin-5-yl)-8-methoxy-4-morpholinoquinazolin-6-yl)-2-fluorophenyl) \ethanesulfonamide], the IC50 on B-RAFV600E lay in the range of 0.1 to 1 µM; on mTOR kinase it was 0.1 to 1 µM; with pERK in A375 cells, 0.1 to 1 µM; in the test with A375 cells, 1 to 10 µM.
`COc1cc(-c2cccc(NS(=O)(=O)c3cc(F)ccc3F)c2F)cc2c(N3CCOCC3)nc(-c3cnc(N)nc3)nc12` [Example 22, N-(3-(2-(2-aminopyrimidin-5-yl)-8-methoxy-4-morpholinoquinazolin-6-yl)-2-fluorophenyl)-2,5-difluorobenzenesulfonamide]: the IC50 at B-RAFV600E lay in the range of 0.001 to 0.1 µM; against mTOR kinase, 0.1 to 1 µM; with pERK in A375 cells, 0.001 to 0.1 µM; in the test on A375 cells, 0.1 to 1 µM.

The record behind these values is patent US9499495B2, “Quinazolines and azaquinazolines as dual inhibitors of RAS/RAF/MEK/ERK and PI3K/AKT/PTEN/mTOR pathways” (Asana Biosciences, LLC, priority 2013, dated 2016).
